# Results reported in patent US6806230B1, “Pyrimidine derivatives and herbicides containing them” (Kumiai Chemical Industry Co., Ltd., priority 1999, dated 2004).
# Legend:
# Assay type in all cases: in vivo
# [1] = tested on: barnyard grass (Ec); experiment: Test Example 2: herbicidal effects by upland soil treatment; set-up: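 0-5 growth inhibition grade; 5 = over 90%; 4 = 70-90%; 3 = 50-70%; 2 = 30-50%; 1 = 10-30%; 0 = under 10%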; settings: dose 100 g active ingredient per 10 ares, examined on the 21st day after treatment
# Outline: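 Pre-emergence test: barnyard grass and green foxtail sown in upland soil, then soil surface sprayed with wettable-powder formulation at 100 g active ingredient per 10 ares (100 l per 10 ares). Grown in greenhouse; herbicidal effect scored on a rating scale 21 days after treatment.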
# [2] = tested on: monochoria (Mo); experiment: Test Example 1: herbicidal effects by flooded paddy field treatment; set-up: herbicidal effects, Mo (monochoria):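 0-5 growth inhibition grade; 5 = over 90%; 4 = 70-90%; 3 = 50-70%; 2 = 30-50%; 1 = 10-30%; 0 = under 10%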; settings: dose 100 g active ingredient per 10 ares, examined on the 21st day after treatment, standards of Table 44
# Outline: (§1)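 Herbicidal effect scored 21 days post-treatment after greenhouse cultivation. Treatment was applied dropwise to the water surface, one day after sowing, as a diluted wettable powder (100 g a.i./10 ares). Pots held puddled paddy soil under 3 cm water.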
# [3] = tested on: barnyard grass (Eo); experiment: as above; set-up: herbicidal effects, Eo (barnyard grass):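 0-5 growth inhibition grade; 5 = over 90%; 4 = 70-90%; 3 = 50-70%; 2 = 30-50%; 1 = 10-30%; 0 = under 10%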; settings: dose 100 g active ingredient per 10 ares, examined on the 21st day after treatment, standards of Table 44
# Outline: as §1
# [4] = tested on: barnyard grass (Ec); experiment: Test Example 3: herbicidal effects by foliage treatment in upland field; set-up: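 0-5 growth inhibition grade; 5 = over 90%; 4 = 70-90%; 3 = 50-70%; 2 = 30-50%; 1 = 10-30%; 0 = under 10%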; settings: dose 100 g active ingredient per 10 ares, examined on the 14th day after treatment
# Experimental: In a 80 cm^2 plastic pot, upland soil was filled, and seeds of barnyard grass (Ec) and green foxtail (Se) were sown and cultured in a green house for 2 weeks. Then, a wettable powder prepared in accordance with Formulation Example 1 was diluted with water and applied to the entire foliage from above the plants by means of a small size spray at a rate of 100 l per 10 ares so that the dose of the active ingredient would be 100 g per 10 ares. Thereafter, cultivation was carried out in a green house, and on the 14th day after the treatment, the herbicidal effects were examined in accordance with the standards of Table 44.
Compound,"Ec (herbicidal effects, index) [1]","herbicidal effects, Mo (monochoria) [2]","herbicidal effects, Eo (barnyard grass) [3]","Ec (herbicidal effects, index) [4]"
CC(C)C(c1cncnc1C(F)(F)F)N(C)C(=O)N(C)c1ccc(F)cc1 (racemic) [1-426],5,5,5,4
CC(C)C(c1cncnc1C(F)(F)F)N(C)C(=O)N(C)c1ccc(F)cc1F (racemic) [1-537],5,5,5,4
CC(C)CC(c1cncnc1C(F)(F)F)N(C)C(=O)Cc1ccc(F)cc1 (racemic) [1-331],5,5,5,4
COc1ncncc1C(C(C)C)N(C)C(=O)Cc1ccc(Cl)cc1 (racemic) [1-403],5,5,5,4
CCCc1ncncc1C(C(C)C)N(C)C(=O)Cc1ccc(Cl)cc1 (racemic) [1-447],5,5,5,5
CCCc1ncncc1C(C(C)C)N(C)C(=O)Cc1ccc(F)cc1 (racemic) [1-446],5,5,5,5
CCC(C)C(c1cncnc1C(F)(F)F)N(C)C(=O)Cc1cccs1 (mixture of isomers) [2-11],5,5,5,5
CN(C(=O)Cc1ccc(Cl)cc1)C(c1cncnc1C(F)(F)F)C1(C)CC1 (racemic) [1-411],5,5,5,4
CC(C)CC(c1cncnc1C(F)(F)F)N(C)C(=O)Cc1ccccc1 (racemic) [1-330],5,5,5,4
"COC(=O)c1ncncc1C(C(C)C)N(C)C(=O)C(C)c1ccc(Cl)cc1 (single isomer, unassigned) [Compound 1-592, 5-(1-{[2-(4-chlorophenyl)-propionyl]methylamino}-2-methylpropyl)-pyrimidine-4-carboxylic acid methyl ester]",5,5,5,5
CC(C)C(c1cncnc1C(F)(F)F)N(CC#N)C(=O)Cc1ccc(Cl)cc1 (racemic) [1-482],5,5,5,5
CC(C)C(c1cncnc1C(F)(F)F)N(C)C(=O)N(C)c1ccccc1F (racemic) [1-536],5,5,5,4
CCC(c1cncnc1C(C)(C)C)N(C)C(=O)Cc1ccc(F)cc1 (racemic) [1-571],5,4,5,4
CCc1ncncc1C(C(C)C)N(C)C(=O)N(C)c1ccc(F)cc1 (racemic) [1-539],5,5,5,4
CCc1ncncc1C(N(C)C(=O)Cc1ccc(F)cc1)C(C)(C)C (racemic) [1-565],5,5,5,5
COCC(c1cncnc1C(C)C)N(C)C(=O)C(C)c1ccc(Cl)cc1 (mixture of isomers) [1-586],5,5,5,5
CC(=O)c1ncncc1C(C(C)C)N(C)C(=O)Cc1ccccc1 (racemic) [1-526],5,5,5,5
CCc1ncncc1C(C(C)C)N(C)C(=O)N(C)c1ccc(Cl)cc1 (racemic) [1-540],5,5,5,4
CCc1ncncc1C(C(C)C)N(C)C(=O)Cc1ccc(Cl)cc1 (racemic) [1-434],5,5,5,4
CCc1ncncc1C(C(C)C)N(C)C(=O)Cc1ccc(C)cc1 (racemic) [1-435],5,5,5,4
CCCC(c1cncnc1C(C)C)N(C)C(=O)Cc1ccc(F)cc1 (racemic) [1-450],5,5,5,4
CC(C)C(c1cncnc1C(F)(F)F)N(C)C(=O)N(C)c1ccc(Cl)cc1 (racemic) [1-427],5,5,5,4
CCCc1ncncc1C(C(C)C)N(C)C(=O)Cc1ccccc1 (racemic) [1-445],5,5,5,5
CC(C)c1ncncc1C(C(C)C)N(C)C(=O)Cc1cccc(F)c1 (racemic) [Compound 1-270],5,5,5,4
CCC(c1cncnc1C(C)C)N(C)C(=O)Cc1ccc(F)cc1 (racemic) [1-437],5,5,5,4
CC(C)c1ncncc1C(C(C)C)N(C)C(=O)N(C)c1ccc(Cl)cc1 (racemic) [1-430],5,5,5,4
CC(C)CC(c1cncnc1C(F)(F)F)N(C)C(=O)Cc1cccs1 (racemic) [2-51],5,5,5,4
Cc1ccc(N(C)C(=O)N(C)C(c2cncnc2C(C)C)C(C)C)cc1 (racemic) [1-431],5,5,5,4
COc1ncncc1C(C(C)C)N(C)C(=O)Cc1ccc(F)cc1 (racemic) [1-402],5,5,5,5
CON=CC(c1cncnc1C(C)C)N(C)C(=O)Cc1ccc(F)cc1 (racemic) [1-463],4,5,5,4
